The test deals with T1, HCV-NS5b (Hepatitis C virus genotype 1b, UniProt Q9WMX2).
T1 construct: (His)6 (C); made in house; host or cells: XL-1 cells (E. coli), IPTG-inducible plasmid, nickel-NTA purification
Description: HCV-NS5b enzyme assay (incorporation of radiolabeled UTP). The test is classed as biochemical. As to conditions: for inhibition at 33 µM / % inh@33: enzyme inhibition at compound concentration of 33 uM; for inhibition at 100 µM: read-out: % inh@100, enzyme inhibition at compound concentration of 100 uM; for % inh@100: enzyme inhibition at compound concentration of 100 uM. The gist of the method: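 His6-tagged NS5b lacking the C-terminal 21 residues, expressed in XL-1 and Ni-NTA purified. Reaction at pH 7.5 with 5 mM MgCl2, 10 μM each NTP including [3H]-UTP and biotinylated HCV heteropolymeric template, 2 h at 37° C; SPA read-out; % inhibition at 100 and 33 uM versus no-compound control, background subtracted.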

For `O=C(N[C@@H](Cc1c[nH]c2ccc(O)cc12)C(=O)O)c1ccc2c(c1)nc(-c1ccc3cc(-c4ccccc4)cnc3c1)n2C1CCCCC1` [Compound 516, 2-{[1-cyclohexyl-2-(3-phenyl-quinolin-7-yl)-1H-benzoimidazole-5-carbonyl]-amino}-3-(5-hydroxy-1H-indol-3-yl)-propionic acid], the inhibition at 33 µM is 99.3% and the inhibition at 100 µM was 100%.

As to `CC(C)[C@H](NC(=O)c1ccc2c(c1)nc(-c1ccc3nc(-c4ccccc4)cnc3c1)n2C1CCCCC1)C(=O)O` [Compound 517, 2-{[1-Cyclohexyl-2-(2-phenyl-quinoxalin-6-yl)-1H-benzoimidazole-5-carbonyl]-amino}-3-methyl-butyric acid], the inhibition at 33 µM came out at 81% and the inhibition at 100 µM worked out at 97.8%.

As for `NC(=O)C[C@H](NC(=O)c1ccc2c(c1)nc(-c1ccc3nc(-c4ccccc4)cnc3c1)n2C1CCCCC1)C(=O)O` [Compound 518, 2-{[1-Cyclohexyl-2-(2-phenyl-quinoxalin-6-yl)-1H-benzoimidazole-5-carbonyl]-amino}-succinamic acid], the inhibition at 33 µM was found to be 76% and the inhibition at 100 µM came to 97.8%.

In the case of `O=C(N[C@@H](Cc1ccc(O)cc1)C(=O)O)c1ccc2c(c1)nc(-c1ccc3nc(-c4ccccc4)cnc3c1)n2C1CCCCC1` [Compound 519, 2-{[1-Cyclohexyl-2-(2-phenyl-quinoxalin-6-yl)-1H-benzoimidazole-5-carbonyl]-amino}-3-(4-hydroxy-phenyl)-propionic acid], the inhibition at 33 µM came to 96.9% and the inhibition at 100 µM is 99.1%.

In the case of `O=C(O)[C@@H]1Cc2ccccc2CN1C(=O)c1ccc2c(c1)nc(-c1ccc3nc(-c4ccccc4)cnc3c1)n2C1CCCCC1` [Compound 520, 2-[1-Cyclohexyl-2-(2-phenyl-quinoxalin-6-yl)-1H-benzoimidazole-5-carbonyl]-1,2,3,4-tetrahydro-isoquinoline-3-carboxylic acid], the inhibition at 33 µM came out at 94.8% and the inhibition at 100 µM stood at 98.9%.

In the case of `CN1CCN(C(=O)c2ccc3c(c2)nc(-c2cc4ccc(-c5ccccc5-c5ccc(Cl)cc5)nc4cc2F)n3C2CCCCC2)CC1` [Compound 521, {2-[2-(4′-Chloro-biphen-2-yl)-7-fluoro-quinolin-6-yl]-1-cyclohexyl-1H-benzoimidazol-5-yl}-(4-methyl-piperazin-1-yl)-methanone], the inhibition at 33 µM was 84.8% and the inhibition at 100 µM is 91.4%.

Turning to `CN1CCN(C(=O)c2ccc3c(c2)nc(-c2cc4ccc(-c5ccccc5-c5ccccc5)nc4cc2F)n3C2CCCCC2)CC1` [Compound 522, [2-(2-Biphen-2-yl-7-fluoro-quinolin-6-yl)-1-cyclohexyl-1H-benzoimidazol-5-yl]-(4-methyl-piperazin-1-yl)-methanone], the inhibition at 33 µM came out at 76.7% and the inhibition at 100 µM came out at 74.2%.

In the case of `N=C(N)NCCC[C@H](NC(=O)c1ccc2c(c1)nc(-c1ccc3nc(-c4ccccc4)cnc3c1)n2C1CCCCC1)C(=O)O` [Compound 523, 2-{[1-Cyclohexyl-2-(2-phenyl-quinoxalin-6-yl)-1H-benzoimidazole-5-carbonyl]-amino}-5-guanidino-pentanoic acid], the inhibition at 33 µM amounted to 87.1% and the inhibition at 100 µM is 95%.

As to `O=C(NCCS(=O)(=O)O)c1ccc2c(c1)nc(-c1ccc3nc(-c4ccccc4)cnc3c1)n2C1CCCCC1` [Compound 524], the “% inh@33” value is reported as 74.09% and the “% inh@100” value came out at 93.58%.

Consider `COc1ccc(-c2ccc(Cl)cc2)c(-c2ccc3cc(-c4nc5cc(-c6nnn[nH]6)ccc5n4C4CCCCC4)ccc3n2)c1` [Compound 525, 2-(4′-chloro-4-methoxy-biphen-2-yl)-6-[1-cyclohexyl-5-(1H-tetrazol-5-yl)-1H-benzoimidazol-2-yl]-quinoline], for which the inhibition at 33 µM was 101% and the inhibition at 100 µM amounted to 101%.

Turning to `O=C(O)c1ccc2cc(NC(=O)c3ccc4c(c3)nc(-c3ccc5nc(-c6ccccc6)cnc5c3)n4C3CCCCC3)ccc2c1` [Compound 526, 6-{[1-Cyclohexyl-2-(2-phenyl-quinoxalin-6-yl)-1H-benzoimidazole-5-carbonyl]-amino}-naphthalene-2-carboxylic acid], the inhibition at 33 µM amounted to 96.8% and the inhibition at 100 µM came to 99%.

As to `COc1ccc(-c2ccc(Cl)cc2)c(-c2ccc3cc(-c4nc5cc(C(=O)O)ccc5n4C(C)C)ccc3n2)c1` [Compound 527, 2-[2-(4′-chloro-4-methoxy-biphen-2-yl)-quinolin-6-yl]-1-isopropyl-1H-benzoimidazole-5-carboxylic acid], the inhibition at 33 µM worked out at 99.4% and the inhibition at 100 µM came out at 101%.

Consider `COc1ccc(-c2ccc(Cl)cc2)c(-c2ccc3cc(-c4nc5cc(C(=O)O)ccc5n4C4CC4)ccc3n2)c1` [Compound 528, 2-[2-(4′-chloro-4-methoxy-biphen-2-yl)-quinolin-6-yl]-1-cyclopropyl-1H-benzoimidazole-5-carboxylic acid], for which the inhibition at 33 µM was 100% and the inhibition at 100 µM turned out to be 101%.

As for `COc1ccc(-c2ccc(Cl)cc2)c(-c2ccc3cc(-c4nc5cc(C(=O)O)ccc5n4C4CCCC4)ccc3n2)c1` [Compound 529, 2-[2-(4′-chloro-4-methoxy-biphen-2-yl)-quinolin-6-yl]-1-cyclopentyl-1H-benzoimidazole-5-carboxylic acid], the inhibition at 33 µM was determined as 99.2% and the inhibition at 100 µM is 99.8%.

Consider `COc1ccc(-c2ccc(Cl)cc2)c(-c2ccc3cc(-c4nc5cc(C(=O)O)ccc5n4CC(C)C)ccc3n2)c1` [Compound 530, 2-[2-(4′-Chloro-4-methoxy-biphen-2-yl)-quinolin-6-yl]-1-isobutyl-1H-benzoimidazole-5-carboxylic acid], for which the inhibition at 33 µM was 98.2% and the inhibition at 100 µM came out at 98.2%.

For the compound `COc1ccc(-c2ccc(Cl)cc2)c(-c2ccc3cc(-c4nc5cc(C(=O)O)ccc5n4CC4CC4)ccc3n2)c1` [Compound 531, 2-[2-(4′-chloro-4-methoxy-biphen-2-yl)-quinolin-6-yl]-1-cyclopropylmethyl-1H-benzoimidazole-5-carboxylic acid], the inhibition at 33 µM worked out at 100% and the inhibition at 100 µM turned out to be 99.3%.

Consider `COc1ccc(-c2ccc(Cl)cc2)c(-c2ccc3cc(-c4nc5cc(C(=O)O)ccc5n4CCC(C)C)ccc3n2)c1` [Compound 532, 2-[2-(4′-chloro-4-methoxy-biphen-2-yl)-quinolin-6-yl]-1-(3-methyl-butyl)-1H-benzoimidazole-5-carboxylic acid], for which the inhibition at 33 µM came to 99.6% and the inhibition at 100 µM is 98.8%.

Turning to `COc1ccc(-c2ccc(Cl)cc2)c(-c2ccc3cc(-c4nc5cc(C(=O)O)ccc5n4CCN(C)C)ccc3n2)c1` [Compound 533, 2-[2-(4′-chloro-4-methoxy-biphen-2-yl)-quinolin-6-yl]-1-(2-dimethylamino-ethyl)-1H-benzoimidazole-5-carboxylic acid], the inhibition at 33 µM amounted to 56.8% and the inhibition at 100 µM was 89.8%.

Take `CCn1c(-c2ccc3nc(-c4cc(OC)ccc4-c4ccc(Cl)cc4)ccc3c2)nc2cc(C(=O)O)ccc21` [Compound 534, 2-[2-(4′-chloro-4-methoxy-biphen-2-yl)-quinolin-6-yl]-1-ethyl-1H-benzoimidazole-5-carboxylic acid]: the inhibition at 33 µM was determined as 90.1% and the inhibition at 100 µM stood at 101%.

With `O=C(O)c1cnc2c(c1)nc(-c1ccc3nc(-c4cc(O)ccc4-c4ccc(Cl)cc4)ccc3c1)n2C1CCCCC1` [Compound 535, 2-[2-(4′-chloro-4-hydroxy-biphen-2-yl)-quinolin-6-yl]-3-cyclohexyl-3H-imidazo[4,5-b]pyridine-6-carboxylic acid], the inhibition at 33 µM came out at 101% and the inhibition at 100 µM was 100%.

Turning to `COc1ccc(-c2ccc(Cl)cc2)c(-c2ccc3cc(-c4[nH]c5cc(C(=O)O)ccc5c4C4CCCCC4)ccc3n2)c1` [Compound 536, 2-[2-(4′-Chloro-4-methoxy-biphen-2-yl)-quinolin-6-yl]-3-cyclohexyl-1H-indole-6-carboxylic acid], the inhibition at 33 µM was determined as 97.5% and the inhibition at 100 µM amounted to 98.9%.

With `COc1ccc(-c2ccc(Cl)cc2)c(-c2ccc3cc(-c4nc5cc(C(=O)O)cnc5n4C4CCCCC4)ccc3n2)c1` [Compound 537, 2-[2-(4′-chloro-4-methoxy-biphen-2-yl)-quinolin-6-yl]-3-cyclohexyl-3H-imidazo[4,5-b]pyridine-6-carboxylic acid], the inhibition at 33 µM worked out at 100% and the inhibition at 100 µM stood at 99.8%.

In the case of `CCOC(=O)c1cnc2c(c1)nc(-c1ccc3nc(-c4cc(O)ccc4-c4ccc(Cl)cc4)ccc3c1)n2C1CCCCC1` [Compound 538, 2-[2-(4′-chloro-4-hydroxy-biphen-2-yl)-quinolin-6-yl]-3-cyclohexyl-3H-imidazo[4,5-b]pyridine-6-carboxylic acid Ethyl Ester], the inhibition at 33 µM worked out at 56.6% and the inhibition at 100 µM amounted to 72.8%.

Consider `O=C(O)c1cnc2c(c1)nc(-c1ccc3nc(-c4cc(C(=O)N5CCCC5)ccc4-c4ccc(Cl)cc4)ccc3c1)n2C1CCCCC1` [Compound 539, 2-{2-[4′-chloro-4-(pyrrolidine-1-carbonyl)-biphen-2-yl]-quinolin-6-yl}-3-cyclohexyl-3H-imidazo[4,5-b]pyridine-6-carboxylic acid], for which the inhibition at 33 µM was determined as 104% and the inhibition at 100 µM stood at 102%.

In the case of `O=C(c1ccc(-c2ccc(Cl)cc2)c(-c2ccc3cc(-c4nc5ccccc5n4C4CCCCC4)ccc3n2)c1)N1CCCC1` [Compound 540], the “% inh@33” value is listed as 91.13% and the “% inh@100” value came out at 95.05%.

(Values after US7511145B2 (Genelabs Technologies, Inc., priority 2003, dated 2009).)
